Experimental findings from patent US20250376468A1, “PYRAZOLO[1,5-a]PYRIDINE DERIVATIVES FOR TREATING TRPM3-MEDIATED DISORDERS” (Katholieke Universiteit Leuven, priority 2022, published 2025) are described below.

The test addresses T1, mouse TRPM3α2 (mTRPM3) ion channel (Mus musculus, UniProt J9SQF3).
T1 construct: expressed in transfected cells; host or cells: flip-in HEK293 (Flp-In HEK293) overexpressing mTRPM3alpha2
Briefly: TRPM3 ion channel driven Ca2+ uptake, Fluo-4 AM assay, stimulated with pregnenolone sulfate (50 μM). The test is classed as cell-based. Conditions: TRPM3 overexpressing flip-in HEK293 cells, PS 50 μM, 2.4 mM Ca2+. How it is done: In order to monitor the inhibition of the mouse TRPM3α2 (mTRPM3) ion channel by the compounds of the invention, a cellular system making use of an mTRPM3alpha2 or hTRPM3 overexpressing cell line (flip-in HEK293) was used. The TRPM3 channel was stimulated/opened with Pregnenolone sulfate (PS) (50 μM) which results in Ca^2+ influx.
For mTRPM3, the intracellular Ca^2+ was measured with a Calcium responsive dye, Fluor-4 AM ester (Invitrogen). Cells were cultured until a confluence of 80-90%, washed with Versene (Invitrogen) and detached from the surface by a short incubation with 0.05% Trypsin (Invitrogen). The […] was stopped by the addition of complete cell culture medium (DMEM, glutamax, 10% FCS, NEAA, Pen-Strep). Cells were collected and resuspended in Krebs buffer without Calcium at RT.
Prior the cell seeding (±2000 cells/well into a black, 384 well plate (Greiner)) the diluted compound was added in the assay plate, together with the PS dissolved in Krebs buffer containing Calcium. […] Directly after cell addition the plates were read on an Envision fluorescence reader (Perkin Elmer) by an Excitation of 485 nm and emission at 535 nm.
Channel inhibition was calculated compared to a non-PS stimulated control versus a condition stimulated with PS (50 μM) with vehicle. The ability of the compounds of the invention to inhibit this activity was determined as: Percentage inhibition=[1−((RFU determined for sample with test compound present−RFU determined for sample with positive control inhibitor) divided by (RFU determined in the presence of vehicle−RFU determined for sample with positive control inhibitor))]*100.
The activities of the Example compounds cpd 001-091 tested are depicted in the table below. All tested compounds show an activity in the Fluo-4 AM assay. The activity ranges A, B and C refer to IC50 values in the Fluo-4 AM assay as follows: “A”: IC50<1 μM; “B”: 1 μM≤IC50≤20 μM and “C”: IC50>20 μM.

T1 sequence (J9SQF3 1-1709 isoform J9SQF3-12): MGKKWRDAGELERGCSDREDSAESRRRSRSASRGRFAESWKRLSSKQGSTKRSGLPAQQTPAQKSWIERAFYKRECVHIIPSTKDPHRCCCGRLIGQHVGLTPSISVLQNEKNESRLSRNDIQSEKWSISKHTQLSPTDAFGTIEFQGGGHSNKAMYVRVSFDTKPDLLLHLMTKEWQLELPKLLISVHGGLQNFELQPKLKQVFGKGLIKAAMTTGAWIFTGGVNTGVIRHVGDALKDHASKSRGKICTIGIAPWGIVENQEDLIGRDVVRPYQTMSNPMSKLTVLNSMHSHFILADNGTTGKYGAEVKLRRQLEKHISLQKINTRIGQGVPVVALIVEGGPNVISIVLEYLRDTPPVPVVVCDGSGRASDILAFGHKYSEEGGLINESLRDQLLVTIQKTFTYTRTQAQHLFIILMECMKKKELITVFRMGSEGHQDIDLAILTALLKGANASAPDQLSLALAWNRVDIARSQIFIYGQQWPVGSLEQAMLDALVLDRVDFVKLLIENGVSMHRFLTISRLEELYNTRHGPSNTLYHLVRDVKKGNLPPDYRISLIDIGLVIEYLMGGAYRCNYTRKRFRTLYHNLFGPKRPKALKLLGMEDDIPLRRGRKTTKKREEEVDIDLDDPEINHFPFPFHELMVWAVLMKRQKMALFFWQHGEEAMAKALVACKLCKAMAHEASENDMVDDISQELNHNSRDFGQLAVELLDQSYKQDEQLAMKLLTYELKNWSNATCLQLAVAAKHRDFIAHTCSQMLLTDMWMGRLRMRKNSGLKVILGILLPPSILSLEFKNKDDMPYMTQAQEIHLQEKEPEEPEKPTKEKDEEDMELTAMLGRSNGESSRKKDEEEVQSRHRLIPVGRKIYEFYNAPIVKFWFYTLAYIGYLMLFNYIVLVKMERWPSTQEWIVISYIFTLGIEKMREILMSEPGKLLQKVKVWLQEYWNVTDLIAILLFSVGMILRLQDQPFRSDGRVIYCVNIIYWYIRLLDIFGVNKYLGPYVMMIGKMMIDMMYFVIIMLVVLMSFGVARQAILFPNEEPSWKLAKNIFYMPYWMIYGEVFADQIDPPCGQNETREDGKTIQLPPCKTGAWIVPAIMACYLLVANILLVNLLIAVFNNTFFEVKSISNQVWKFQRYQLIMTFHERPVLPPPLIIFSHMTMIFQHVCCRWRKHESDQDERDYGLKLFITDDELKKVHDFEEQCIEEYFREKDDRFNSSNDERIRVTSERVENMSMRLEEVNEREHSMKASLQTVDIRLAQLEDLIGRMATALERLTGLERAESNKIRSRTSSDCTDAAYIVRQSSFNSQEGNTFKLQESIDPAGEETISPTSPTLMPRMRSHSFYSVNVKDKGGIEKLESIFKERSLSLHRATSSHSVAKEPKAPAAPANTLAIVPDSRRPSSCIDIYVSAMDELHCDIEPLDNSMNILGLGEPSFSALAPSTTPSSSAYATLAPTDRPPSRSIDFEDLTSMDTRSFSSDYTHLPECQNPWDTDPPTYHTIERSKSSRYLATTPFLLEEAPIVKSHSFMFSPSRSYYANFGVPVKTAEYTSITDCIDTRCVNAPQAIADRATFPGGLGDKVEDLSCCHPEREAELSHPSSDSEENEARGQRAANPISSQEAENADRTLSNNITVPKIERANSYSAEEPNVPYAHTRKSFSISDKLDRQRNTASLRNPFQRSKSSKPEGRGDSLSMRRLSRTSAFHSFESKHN

`Cc1nn2ccc(OCc3ccccn3)cc2c1C(=O)NC(CO)C1CCOCC1` (centres unmarked) [Cpd 077 - En2] registered an IC50 greater than 20 µM. As for `Cc1nn2ccc(OCc3ccccc3F)cc2c1C(=O)NCCNS(C)(=O)=O` [Cpd 005, 5-[(2-fluorophenyl)methoxy]-N-(2-methanesulfonamidoethyl)-2-methylpyrazolo[1,5-a]pyridine-3-carboxamide], the figure is 1 to 20 µM. Next, `Cc1nn2ccc(OCc3ccccn3)cc2c1C(=O)NC(C)(CO)C(N)=O` (single isomer, unassigned) [Cpd 089 - En2, 3-hydroxy-2-methyl-2-({2-methyl-5-[(pyridin-2-yl)methoxy]pyrazolo[1,5-a]pyridin-3-yl}formamido)propanamide]: less than 1 µM; `Cc1nn2ccc(OCc3ccccn3)cc2c1C(=O)NC1CNCC(F)(F)C1` (single isomer, unassigned) [Cpd 052 - En2, N-(5,5-difluoropiperidin-3-yl)-2-methyl-5-[(pyridin-2-yl)methoxy]pyrazolo[1,5-a]pyridine-3-carboxamide]: greater than 20 µM; `Cc1nn2ccc(OCc3ccccn3)cc2c1C(=O)Nc1cc(C(F)(F)F)cnc1O` [Cpd 056, N-[2-hydroxy-5-(trifluoromethyl)pyridin-3-yl]-2-methyl-5-[(pyridin-2-yl)methoxy]pyrazolo[1,5-a]pyridine-3-carboxamide]: greater than 20 µM. Next, `Cc1ncsc1COc1ccn2nc(C)c(C(=O)N[C@@H](CO)C(N)=O)c2c1` [Cpd 010, (2S)-3-hydroxy-2-({2-methyl-5-[(4-methyl-1,3-thiazol-5-yl)methoxy]pyrazolo[1,5-a]pyridin-3-yl}formamido)propanamide]: 1 to 20 µM. `Cc1nn2ccc(OCc3ccccc3F)cc2c1C(=O)O` [Cpd 035, 5-[(2-fluorophenyl)methoxy]-2-methylpyrazolo[1,5-a]pyridine-3-carboxylic acid] came in with an IC50 greater than 20 µM. Next, `Cc1nn2ccc(OCc3ccccn3)cc2c1C(=O)NCc1cccc(OC(F)F)c1` [Cpd 048, N-{[3-(difluoromethoxy)phenyl]methyl}-2-methyl-5-[(pyridin-2-yl)methoxy]pyrazolo[1,5-a]pyridine-3-carboxamide]: greater than 20 µM; `Cc1nn2ccc(OCc3ccccn3)cc2c1C(=O)NC(CO)CC(N)=O` (centres unmarked) [Cpd 076 - En2]: greater than 20 µM; `CCC(CO)(NC(=O)c1c(C)nn2ccc(OCc3ccccc3F)cc12)C(N)=O` (centres unmarked) [Cpd 001, 2-({5-[(2-fluorophenyl)methoxy]-2-methylpyrazolo[1,5-a]pyridin-3-yl}formamido)-2-(hydroxymethyl)butanamide]: less than 1 µM. As for `Cc1nn2ccc(OCc3ccccc3F)cc2c1C(=O)NC1(CO)CCNC1=O` (single isomer, unassigned) [Cpd 018 - En1, 5-[(2-fluorophenyl)methoxy]-N-[3-(hydroxymethyl)-2-oxopyrrolidin-3-yl]-2-methylpyrazolo[1,5-a]pyridine-3-carboxamide], the figure is 1 to 20 µM; as for `Cc1nn2ccc(OCc3ccccn3)cc2c1C(=O)NC1(CO)COC(C)(C)OC1` [Cpd 057, N-[5-(hydroxymethyl)-2,2-dimethyl-1,3-dioxan-5-yl]-2-methyl-5-[(pyridin-2-yl)methoxy]pyrazolo[1,5-a]pyridine-3-carboxamide], greater than 20 µM; as for `Cc1nn2ccc(OCc3ccccn3)cc2c1C(=O)NC(C)(CO)CC(F)F` (single isomer, unassigned) [Cpd 038 - En1, N-(4,4-difluoro-1-hydroxy-2-methylbutan-2-yl)-2-methyl-5-[(pyridin-2-yl)methoxy]pyrazolo[1,5-a]pyridine-3-carboxamide], 1 to 20 µM. In turn, `Cc1nn2ccc(OCc3ccccc3F)cc2c1C(=O)NC(C)(CO)C(N)=O` (single isomer, unassigned) [Cpd 020 - En2, 2-({5-[(2-fluorophenyl)methoxy]-2-methylpyrazolo[1,5-a]pyridin-3-yl}formamido)-3-hydroxy-2-methylpropanamide] returned an IC50 of 1 to 20 µM. For `Cc1nn2ccc(OCc3ccccc3Cl)cc2c1C(=O)O` [Cpd 036, 5-[(2-chlorophenyl)methoxy]-2-methylpyrazolo[1,5-a]pyridine-3-carboxylic acid], the IC50 was greater than 20 µM. As for `Cc1nn2ccc(OCc3ccccc3F)cc2c1C(=O)N(C)C(C)(CO)C(N)=O` (single isomer, unassigned) [Cpd 024 - En2, 2-(1-{5-[(2-fluorophenyl)methoxy]-2-methylpyrazolo[1,5-a]pyridin-3-yl}-N-methylformamido)-3-hydroxy-2-methylpropanamide], the figure is 1 to 20 µM. Next, `Cc1nn2ccc(OCc3ccccc3F)cc2c1C(=O)N[C@@H](CO)C(N)=O` [Cpd 003, (2S)-2-({5-[(2-fluorophenyl)methoxy]-2-methylpyrazolo[1,5-a]pyridin-3-yl}formamido)-3-hydroxypropanamide]: less than 1 µM; `Cc1nn2ccc(OCc3ccccn3)cc2c1C(=O)NCCO` [Cpd 043, N-(2-hydroxyethyl)-2-methyl-5-[(pyridin-2-yl)methoxy]pyrazolo[1,5-a]pyridine-3-carboxamide]: greater than 20 µM; `Cc1nn2ccc(OCC3CC3)cc2c1C(=O)O` [Cpd 034, 5-(cyclopropylmethoxy)-2-methylpyrazolo[1,5-a]pyridine-3-carboxylic acid]: greater than 20 µM.

`Cc1nn2ccc(OCc3ccccn3)cc2c1C(=O)N[C@@]1(CO)C[C@H]1C(F)F` (relative stereo) [Cpd 072 - En1, N-[cis-2-(difluoromethyl)-1-(hydroxymethyl)cyclopropyl]-2-methyl-5-[(pyridin-2-yl)methoxy]pyrazolo[1,5-a]pyridine-3-carboxamide] yielded an IC50 of 1 to 20 µM.

The compound `Cc1nn2ccc(OCc3ccccc3F)cc2c1C(=O)NCC(F)F` [Cpd 006, N-(2,2-difluoroethyl)-5-[(2-fluorophenyl)methoxy]-2-methylpyrazolo[1,5-a]pyridine-3-carboxamide] registered an IC50 of 1 to 20 µM. The compound `Cc1nn2ccc(OCc3ccccn3)cc2c1C(=O)NC(C)(CO)C(N)=O` (single isomer, unassigned) [Cpd 089 - En1, 3-hydroxy-2-methyl-2-({2-methyl-5-[(pyridin-2-yl)methoxy]pyrazolo[1,5-a]pyridin-3-yl}formamido)propanamide] displayed an IC50 greater than 20 µM. As for `Cc1nn2ccc(OCc3ccccn3)cc2c1C(=O)NC(CO)Cc1ncccn1` (centres unmarked) [Cpd 079 - En 1], the figure is greater than 20 µM; as for `Cc1nn2ccc(OCc3ccccn3)cc2c1C(=O)NCC(F)(F)c1ccccc1` [Cpd 046, N-(2,2-difluoro-2-phenylethyl)-2-methyl-5-[(pyridin-2-yl)methoxy]pyrazolo[1,5-a]pyridine-3-carboxamide], greater than 20 µM; as for `Cc1nn2ccc(OCc3ccccc3F)cc2c1C(=O)NC1(CO)CCNC1=O` (single isomer, unassigned) [Cpd 018 - En2, 5-[(2-fluorophenyl)methoxy]-N-[3-(hydroxymethyl)-2-oxopyrrolidin-3-yl]-2-methylpyrazolo[1,5-a]pyridine-3-carboxamide], less than 1 µM. As for `Cc1nn2ccc(OCc3ccccn3)cc2c1C(=O)NC(C)(CO)CC(F)F` (single isomer, unassigned) [Cpd 038 - En2, N-(4,4-difluoro-1-hydroxy-2-methylbutan-2-yl)-2-methyl-5-[(pyridin-2-yl)methoxy]pyrazolo[1,5-a]pyridine-3-carboxamide], the figure is less than 1 µM.
